# “Also recorded” adds a separate entry of the source.
# What was measured:
# [1] = pH value of the aqueous solution with or without HSA; type: physicochemical; conditions: about 25° C.
# Protocol: 245.3 mg of fosaprepitant dimeglumine and 0.28 mg of palonosetron hydrochloride were dissolved in methanol, and then methanol was removed from the solution to give a white solid.
# [2] = Stability of fosaprepitant in a human serum albumin (HSA) solution, visual clarity; type: physicochemical; conditions: for appearance of solution initially: 25° C.; for appearance of solution over time: after 1, 2, 3, 4, 6, 8 and 24 hours at 25° C.
# Protocol: To 3 different vials containing 25 mg of fosaprepitant dimeglumine each were added 1 ml of 10% HSA solution (w/v), 1 ml of 5% HSA solution (w/v), and 1 ml of 2% HSA solution (w/v), respectively, at 25° C.
# [3] = cited from earlier work
# [4] = 25 mg in 1 ml of 2% HSA solution (w/v)
# [5] = 25 mg in 1 ml of 5% HSA solution (w/v)
# [6] = 25 mg in 1 ml of 10% HSA solution (w/v)
Structure (SMILES),pH value of the clear aqueous solution ([1]; 24.5 mg in 15 ml of 0.9% saline solution),pH value of the clear aqueous solution ([1]; 24.5 mg in 15 ml of HSA solution (0.5 ml of 20% HSA + 14.5 ml of 0.9% saline)),"appearance of solution initially [2, 4]","appearance of solution over time [2, 4]","appearance of solution initially [2, 5]","appearance of solution over time [2, 5]","appearance of solution initially [2, 6]","appearance of solution over time [2, 6]",solubility in water [3],solubility in acetonitrile ([3]; acetonitrile),solubility in ethanol ([3]; ethanol),solubility in isopropyl acetate ([3]; isopropyl acetate)
C[C@@H](O[C@H]1OCCN(Cc2nn(P(=O)(O)O)c(=O)[nH]2)[C@H]1c1ccc(F)cc1)c1cc(C(F)(F)F)cc(C(F)(F)F)c1 [fosaprepitant dimeglumine],7.70,7.15,clear aqueous solution,stayed clear,clear aqueous solution,stayed clear,clear aqueous solution,stayed clear,,,,
C[C@@H](O[C@H]1OCCN(Cc2nc(O)n(P(=O)(O)O)n2)[C@H]1c1ccc(F)cc1)c1cc(C(F)(F)F)cc(C(F)(F)F)c1 [fosaprepitant],,,,,,,,,soluble,,,
"C[C@@H](O[C@H]1OCCN(Cc2n[nH]c(=O)[nH]2)[C@H]1c1ccc(F)cc1)c1cc(C(F)(F)F)cc(C(F)(F)F)c1 [Aprepitant, aprepitant]",,,,,,,,,practicallyinsoluble; also recorded: insoluble,slightly soluble,sparingly soluble,sparingly soluble

# — patent US20220226444A1, “FORMULATIONS OF FOSAPREPITANT AND APREPITANT” (Zhuhai Beihai Biotech Co., Ltd., priority 2016, published 2022)
